# Test results reported in ChEMBL document CHEMBL1201862, “PubChem BioAssay data set” (2004).
# The source made the active and inactive calls. Rule as the data show it, for most assays here: actives have a measured EC50 and inactives only a lower limit.
# What was measured:
# [1] = Luminescence Cell-Based Dose Response HTS to Identify Activators of Luciferase Translation or Activity in H4 […] Cells. [Related pubchem assays: 1829 (Project Summary), 1814 (Primary HTS)]; assay type: functional
# H4 = assay: Luminescence Cell-Based Dose Response HTS to Identify Activators of 5'UTR Stem-Loop Driven Prion Protein mRNA Translation in H4 Neuroglioblastoma Cells. [Related pubchem assays: 1829 (Project Summary), 1814 (Primary HTS)]; assay type: functional; conditions: Homo sapiens
# [2] = molecular target: T1, RNA-binding protein pos-1 (Caenorhabditis elegans, UniProt G5EF15); assay: inhibitors of POS-1/mex-3 RNA binding, dose response, biochemical, fluorescence polarization (AID 1964);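 also: purified POS-1 fused to maltose binding protein made in E. coli; potency of compounds blocking POS-1 binding to fluorescent RNA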
# T1 sequence (G5EF15 whole entry): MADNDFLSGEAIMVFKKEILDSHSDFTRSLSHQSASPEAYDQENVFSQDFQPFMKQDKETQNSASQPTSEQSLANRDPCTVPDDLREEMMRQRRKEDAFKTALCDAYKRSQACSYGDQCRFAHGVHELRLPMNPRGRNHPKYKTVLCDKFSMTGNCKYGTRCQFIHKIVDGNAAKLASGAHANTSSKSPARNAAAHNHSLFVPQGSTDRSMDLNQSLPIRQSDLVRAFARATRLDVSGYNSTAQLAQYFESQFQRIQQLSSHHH
# [3] = inhibitors of firefly luciferase expression or activity, dose response, H4 neuroglioma cells, luminescence (AID 1990); assay type: functional, cell-based
# [4] = Luminescence Cell-Based Dose Response HTS to Identify Inhibitors of 5'UTR Stem-Loop Driven Prion Protein mRNA Translation in H4 Neuroglioblastoma Cells. [Related pubchem assays: 1827 (Project Summary), 1813 (Primary HTS)]; assay type: functional
# [5] = inhibitors of SNCA 5'UTR-driven reporter translation, confirmation, H4 neuroglioma cells, luminescence (AID 1988); assay type: functional, cell-based
# [6] = HEp-2 cell cytotoxicity, dose response, cytotoxicity control for RSV inhibitor project, HTS (AID 2410); assay type: functional; conditions: human respiratory syncytial virus
# [7] = tested on: Streptococcus sp. 'group A'; assay: growth inhibition of control SK(-) GAS strain, dose response, counter-screen for streptokinase expression inhibitor project, luminescence, kanamycin, BacTiterGlo, confirmation (AID 1900); assay type: functional, organism-based
# Streptokinase A = molecular target: T2, Streptokinase A (Streptococcus pyogenes serotype M1, UniProt P10520); assay: S. pyogenes streptokinase expression inhibitors, potency, dose response, plasminogen activation absorbance, OD405 (AID 1914); assay type: functional, Streptococcus pyogenes M1 GAS;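 also: secreted streptokinase activity via plasminogen activation per viability signal from cell pellet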
# T2 sequence (P10520 whole entry): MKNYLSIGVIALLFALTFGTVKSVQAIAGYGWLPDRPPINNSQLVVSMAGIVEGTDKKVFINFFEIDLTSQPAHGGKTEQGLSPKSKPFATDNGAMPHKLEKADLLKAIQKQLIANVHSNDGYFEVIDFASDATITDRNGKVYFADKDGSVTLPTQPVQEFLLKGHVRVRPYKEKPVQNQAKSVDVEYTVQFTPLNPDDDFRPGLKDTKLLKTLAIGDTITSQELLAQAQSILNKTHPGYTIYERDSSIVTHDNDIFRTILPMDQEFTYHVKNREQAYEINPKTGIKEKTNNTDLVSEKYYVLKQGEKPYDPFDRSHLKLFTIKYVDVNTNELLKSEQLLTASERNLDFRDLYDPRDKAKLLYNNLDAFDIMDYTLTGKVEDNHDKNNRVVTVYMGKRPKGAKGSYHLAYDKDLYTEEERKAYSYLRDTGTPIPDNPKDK
# Streptococcus = assay: Group A Streptococcus viability loss, dose response, counter-screen for streptokinase expression inhibitor project, luminescence, BacTiterGlo (AID 1915); assay type: functional, organism-based;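 also: potency for reduction of bacterial viability or growth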
# Cytochrome P450 3A4 = Cytochrome P450 3A4 (Homo sapiens, UniProt P08684);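 also: CYP3A4 tested as one member of a cytochrome P450 panel screen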
# INS1 = assay: beta cell apoptosis inhibitors, cytokine rescue, dose response, luminescence, retest (AID 449756); assay type: functional, cell-based; conditions: Rattus norvegicus;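 also: cell death triggered by IL-1 beta plus TNF-alpha plus IFN-gamma mixture; protective hits raise ATP signal compared with cytokine alone wells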
# [8] = NIH-3T3 fibroblast cytotoxicity, dose response, cytotoxicity control, cell-based, fluorescence, Alamar Blue, secondary assay (AID 2327); assay type: functional;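 also: NIH-3T3 mouse fibroblasts cultured with fluconazole at 8 µg/mL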
# Protein RecA = molecular target: T3, Protein RecA (Mycobacterium tuberculosis, UniProt P9WHJ3); assay: Fluorescence Cell-Free Homogeneous Dose Retest to Identify Inhibitors of RecA-Intein Splicing Activity. [Related pubchem assays (depositor defined):AID2097, AID2223, AID489010, AID492950]; assay type: functional
# T3 sequence (P9WHJ3 whole entry): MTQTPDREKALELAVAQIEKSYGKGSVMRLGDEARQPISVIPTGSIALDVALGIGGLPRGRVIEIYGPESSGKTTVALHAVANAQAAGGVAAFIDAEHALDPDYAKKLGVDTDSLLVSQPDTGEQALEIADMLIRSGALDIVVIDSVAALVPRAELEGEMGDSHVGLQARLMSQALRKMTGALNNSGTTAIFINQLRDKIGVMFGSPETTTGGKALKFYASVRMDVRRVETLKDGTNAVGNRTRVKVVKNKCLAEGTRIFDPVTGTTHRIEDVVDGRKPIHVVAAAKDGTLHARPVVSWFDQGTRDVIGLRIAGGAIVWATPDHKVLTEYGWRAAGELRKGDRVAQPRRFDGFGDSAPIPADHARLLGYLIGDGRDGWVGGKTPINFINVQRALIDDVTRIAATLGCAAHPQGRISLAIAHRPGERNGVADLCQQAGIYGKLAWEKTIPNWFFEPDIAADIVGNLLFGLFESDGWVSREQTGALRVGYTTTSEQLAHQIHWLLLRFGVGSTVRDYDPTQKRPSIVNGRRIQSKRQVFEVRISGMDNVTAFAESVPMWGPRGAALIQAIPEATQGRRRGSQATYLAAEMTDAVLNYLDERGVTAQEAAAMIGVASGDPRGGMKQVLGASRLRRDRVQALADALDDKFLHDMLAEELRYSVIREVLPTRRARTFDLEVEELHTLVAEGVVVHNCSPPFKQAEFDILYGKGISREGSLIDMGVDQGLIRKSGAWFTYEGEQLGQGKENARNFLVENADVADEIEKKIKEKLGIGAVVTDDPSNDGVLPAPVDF
# [9] = molecular target: T4, Heat shock factor protein 1 (Mus musculus, UniProt P38532); assay: inhibition of MG132-induced HSE-luciferase signal, confirmation, cell-based, NIH3T3, luminescence, dose retest (AID 2382); assay type: functional;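 also: NIH3T3 fibroblasts with HSF1-driven luciferase reporter stressed by proteasome inhibitor MG132; luminescence from HSF1-driven luciferase expression after 8 hours of MG132 stress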
# T4 sequence (P38532 whole entry): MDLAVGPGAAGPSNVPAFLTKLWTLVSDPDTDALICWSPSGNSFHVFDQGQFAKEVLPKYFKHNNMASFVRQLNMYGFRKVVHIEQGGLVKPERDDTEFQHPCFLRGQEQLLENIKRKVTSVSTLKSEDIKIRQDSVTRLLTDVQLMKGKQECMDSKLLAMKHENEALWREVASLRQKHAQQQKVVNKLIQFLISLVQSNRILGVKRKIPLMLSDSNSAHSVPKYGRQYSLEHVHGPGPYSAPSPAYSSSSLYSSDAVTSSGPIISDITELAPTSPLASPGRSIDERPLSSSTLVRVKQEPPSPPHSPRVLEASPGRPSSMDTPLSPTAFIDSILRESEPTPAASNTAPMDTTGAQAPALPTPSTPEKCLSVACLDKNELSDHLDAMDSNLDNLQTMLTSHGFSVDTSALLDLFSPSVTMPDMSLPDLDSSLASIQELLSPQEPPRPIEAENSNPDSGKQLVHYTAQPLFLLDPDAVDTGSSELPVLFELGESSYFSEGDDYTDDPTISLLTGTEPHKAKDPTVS
# [10] = control 3'UTR Renilla luciferase suppression, dose response, counter-screen for Shn3 inhibitor project, cell-based, Clone20-Shn3RL, cherry-picked (AID 624133); assay type: functional
# Cytochrome P450 3A4, sequence (P08684 whole entry): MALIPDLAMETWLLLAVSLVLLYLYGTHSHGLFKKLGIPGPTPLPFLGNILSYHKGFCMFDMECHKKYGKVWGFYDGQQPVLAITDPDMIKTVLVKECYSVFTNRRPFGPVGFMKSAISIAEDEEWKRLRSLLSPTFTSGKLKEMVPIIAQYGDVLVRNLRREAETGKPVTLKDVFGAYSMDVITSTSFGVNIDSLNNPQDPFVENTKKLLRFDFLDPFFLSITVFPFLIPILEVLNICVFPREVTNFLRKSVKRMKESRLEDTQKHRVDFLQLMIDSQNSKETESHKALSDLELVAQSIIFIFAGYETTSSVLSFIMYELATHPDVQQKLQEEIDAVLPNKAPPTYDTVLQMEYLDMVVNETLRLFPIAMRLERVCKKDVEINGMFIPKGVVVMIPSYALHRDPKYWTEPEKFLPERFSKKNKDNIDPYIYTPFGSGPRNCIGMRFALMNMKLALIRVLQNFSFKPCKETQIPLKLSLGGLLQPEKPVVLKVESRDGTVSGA
compound,measurement,setting,value
O=C(CNC(=O)c1ccc(F)cc1)c1ccc(Cl)cc1,EC50,[1],0.717 µM (active)
same,EC50,H4,79 µM (active)
COc1ccc(N2C(=O)NC(=O)/C(=C\c3cn(C)c4ccccc34)C2=O)cc1,EC50,[2],1.05 µM (active)
CCCC/C(=N\CCc1c(C)[nH]c2ccc(OC)cc12)C1=C(O)CC(c2ccccc2)CC1=O (centres undefined),EC50,[3],9.11 µM (active)
same,EC50,[4],> 120 µM (not active)
same,EC50,[5],2.61 µM (active)
Cc1cc(NC(=O)CSc2nc3ccccc3[nH]2)n(-c2ccccc2)n1,EC50,[3],> 120 µM (not active)
same,EC50,[4],> 120 µM (not active)
same,EC50,[5],> 120 µM (not active)
O=C1CCSc2ccc(Cl)cc2N1Cc1ccc(Cl)cc1,CC50,[6],23.4 µM (active)
same,EC50,[7],7.8 µM (active)
same,EC50,Streptokinase A,18.4 µM (active)
same,EC50,Streptococcus,49.5 µM (active)
CCOc1ccccc1-c1nnc(SCC(=O)NC2CC3CCC2C3)n1CC (centres undefined),EC50,[3],> 120 µM (not active)
same,EC50,[4],> 120 µM (not active)
same,EC50,[5],16.7 µM (active)
Cn1nc(C(F)(F)F)c2cc(C(=O)Nc3ccc(Cl)cc3)sc21,CC50,[6],21.4 µM (active)
COc1ccccc1NC(=O)Nc1nc(-c2cccnc2)nc2ccccc12,AC50,Cytochrome P450 3A4,0.631 µM (inconclusive)
C=C(C)C(=O)N1CC2(CC(c3cccc(NC(=O)COc4ccc(Cl)cc4)c3)=NO2)C[C@@H]1C(N)=O (some centres undefined),AC50,INS1,9.67 µM (active)
Cc1ccc(C)c(N2CCN(S(=O)(=O)c3ccc(-c4cc(C)no4)s3)CC2)c1,CC50,[6],> 50 µM (active)
O=S(=O)(c1cccs1)N1CCN(CC(O)COc2cc(Cl)ccc2Cl)CC1 (centres undefined),AC50,INS1,5.11 µM (active)
Cc1ccc(S(=O)(=O)N2CCN(C(=O)c3ccc(N4CCCCC4)c([N+](=O)[O-])c3)CC2)cc1,CC50,[6],> 50 µM (active)
CC(=O)Nc1ccc(NC(=O)CSc2ccc3nnc(CCNS(=O)(=O)c4ccc(C)cc4)n3n2)cc1,EC50,[8],> 160 µM (inactive)
C=CC/N=C1/S/C(=C/c2cccc([N+](=O)[O-])c2)C(=O)N1CC=C,CC50,[6],28 µM (active)
O=S(=O)(c1ccccc1F)N1CCC(c2nc(O)c3nnn(Cc4ccc(F)cc4)c3n2)CC1,CC50,[6],27 µM (active)
O=C(CSC1=NCCS1)Nc1ccc(S(=O)(=O)NC2CCCCC2)cc1,EC50,Protein RecA,13.3 µM (active)
COc1ccc(NC(=O)CN2C(=O)COc3ccc(S(=O)(=O)N4CCCCCC4)cc32)cc1,EC50,[3],> 120 µM (not active)
same,EC50,[4],> 120 µM (not active)
same,EC50,[5],> 120 µM (not active)
CC(=O)OC[C@H]1O[C@@H](O/N=C(\C)CCN2CCCc3nc(C)c(C)cc32)[C@H](OC(C)=O)[C@@H](OC(C)=O)[C@H]1OC(C)=O,AC50,Cytochrome P450 3A4,3.98 µM (inconclusive)
CC(=O)N1CCC2(CCCN(c3ccccc3)C2)CC1,AC50,Cytochrome P450 3A4,20 µM (inconclusive)
CCc1ccc(OC)c(S(=O)(=O)Nc2ccc(Cc3ccncc3)cc2)c1,AC50,INS1,3.7 µM (active)
CCNc1ncc2nc(CCc3ccccc3)c(=O)n(C)c2n1,AC50,Cytochrome P450 3A4,31.6 µM (inconclusive)
c1ccc(-c2ccc(C3=Nn4c(nnc4-c4cccs4)SC3)cc2)cc1,CC50,[6],16.6 µM (active)
S=C(c1ccc(-c2ccccc2)cc1)N1CCOCC1,EC50,[3],10.9 µM (active)
same,EC50,[4],15.5 µM (active)
same,EC50,[5],9.91 µM (active)
CCSC1=NC(/C=C/c2ccc(Cl)cc2Cl)=CC(C)(C)N1,CC50,[6],18 µM (active)
CCc1ccc(Nc2nnc(SCc3cc(=O)n4ccsc4n3)s2)cc1,CC50,[6],26.4 µM (active)
Cc1ccc(C(=O)NC2CCN(S(=O)(=O)c3ccc(C)cc3)CC2)cc1,EC50,[3],> 120 µM (not active)
same,EC50,[4],4.43 µM (active)
same,EC50,[5],45.4 µM (active)
CCn1c(SCc2cc(O)nc3ccccc23)nnc1C1CC1,EC50,[3],> 120 µM (not active)
same,EC50,[4],> 120 µM (not active)
same,EC50,[5],> 120 µM (not active)
CC(O)CNc1nc2sc3c(c2c(=O)n1Cc1ccco1)CCCCC3 (centres undefined),AC50,INS1,45 µM (active)
Cc1cc(NC(=O)COC(=O)[C@@H](NS(=O)(=O)c2ccc(Br)cc2)C(C)C)no1,EC50,[8],> 150 µM (inactive)
CCOC(=O)c1cccc(NC(=O)Nc2ccc(OCC)cc2)c1,EC50,[3],11.2 µM (inconclusive)
same,EC50,[4],10.8 µM (active)
same,EC50,[5],9.81 µM (active)
CN(c1ccccc1)S(=O)(=O)c1cccc(NC(=O)c2cccc(C#N)c2)c1,CC50,[6],16.1 µM (active)
CCOc1ccc(C(=O)N/N=C(\c2ccccc2)c2ccccn2)cc1,EC50,[7],4.25 µM (active)
same,EC50,Streptokinase A,> 150 µM (not active)
same,EC50,Streptococcus,11.8 µM (active)
same,AC50,INS1,1.19 µM (active)
CC1(C)CC(NCc2ccc3c(c2)OCO3)CCO1 (centres undefined),EC50,[9],> 195 µM (not active)
same,AC50,Cytochrome P450 3A4,17.8 µM (inconclusive)
CN1C(=O)N(C)c2cccc3cccc1c23,CC50,[6],22.5 µM (active)
O=C(CSc1nc2cc(Cl)c[nH]c-2n1)N1CCOCC1,AC50,[10],32.3 µM (active)
